# Key:
# guinea pig αβγ-ENaC = target: T1, guinea pig αβγ-ENaC (Cavia porcellus, UniProt B8QP44+H0UT09+H0VNV9); assay: two-electrode voltage clamp, Xenopus oocytes, concentration-response; type: cell-based
# T1 construct: gene SCNN1A; heterotrimer in Xenopus laevis oocytes; printed GenBank ids are 5'RACE products
# T1 sequence (B8QP44 1-656): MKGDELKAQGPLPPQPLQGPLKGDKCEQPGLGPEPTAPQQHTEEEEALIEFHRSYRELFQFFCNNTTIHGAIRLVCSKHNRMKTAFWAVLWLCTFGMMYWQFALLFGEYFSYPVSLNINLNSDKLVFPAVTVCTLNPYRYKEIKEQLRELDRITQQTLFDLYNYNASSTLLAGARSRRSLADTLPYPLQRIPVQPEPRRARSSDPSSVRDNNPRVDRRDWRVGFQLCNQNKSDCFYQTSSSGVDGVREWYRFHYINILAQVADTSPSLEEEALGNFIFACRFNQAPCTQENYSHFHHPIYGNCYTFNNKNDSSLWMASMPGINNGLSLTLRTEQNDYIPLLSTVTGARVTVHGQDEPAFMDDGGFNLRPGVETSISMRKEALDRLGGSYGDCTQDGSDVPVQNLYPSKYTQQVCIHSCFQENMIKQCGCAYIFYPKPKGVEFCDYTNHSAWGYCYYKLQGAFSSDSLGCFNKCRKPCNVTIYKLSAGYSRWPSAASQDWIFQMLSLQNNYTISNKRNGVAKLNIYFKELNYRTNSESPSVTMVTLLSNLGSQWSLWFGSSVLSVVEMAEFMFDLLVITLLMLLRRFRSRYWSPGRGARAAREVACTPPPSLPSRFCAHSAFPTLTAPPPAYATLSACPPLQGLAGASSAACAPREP
# T1 sequence (H0VNV9 1-640): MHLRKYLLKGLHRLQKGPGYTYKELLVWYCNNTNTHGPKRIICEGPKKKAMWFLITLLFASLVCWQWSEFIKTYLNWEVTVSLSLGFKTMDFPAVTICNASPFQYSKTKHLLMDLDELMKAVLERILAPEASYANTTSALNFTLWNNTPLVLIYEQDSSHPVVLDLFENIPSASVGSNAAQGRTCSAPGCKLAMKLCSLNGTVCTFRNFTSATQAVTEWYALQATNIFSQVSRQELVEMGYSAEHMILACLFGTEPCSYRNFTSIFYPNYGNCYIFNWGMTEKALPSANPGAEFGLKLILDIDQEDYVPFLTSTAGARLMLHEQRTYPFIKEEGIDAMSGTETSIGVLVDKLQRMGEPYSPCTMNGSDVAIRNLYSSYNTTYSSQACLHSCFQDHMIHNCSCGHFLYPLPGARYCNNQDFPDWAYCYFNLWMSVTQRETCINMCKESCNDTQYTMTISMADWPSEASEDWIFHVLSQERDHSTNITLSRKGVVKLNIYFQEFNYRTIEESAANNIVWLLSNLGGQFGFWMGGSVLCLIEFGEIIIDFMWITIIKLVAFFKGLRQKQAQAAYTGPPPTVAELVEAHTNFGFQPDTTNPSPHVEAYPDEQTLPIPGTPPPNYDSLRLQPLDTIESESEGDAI
# T1 sequence (H0UT09 1-653): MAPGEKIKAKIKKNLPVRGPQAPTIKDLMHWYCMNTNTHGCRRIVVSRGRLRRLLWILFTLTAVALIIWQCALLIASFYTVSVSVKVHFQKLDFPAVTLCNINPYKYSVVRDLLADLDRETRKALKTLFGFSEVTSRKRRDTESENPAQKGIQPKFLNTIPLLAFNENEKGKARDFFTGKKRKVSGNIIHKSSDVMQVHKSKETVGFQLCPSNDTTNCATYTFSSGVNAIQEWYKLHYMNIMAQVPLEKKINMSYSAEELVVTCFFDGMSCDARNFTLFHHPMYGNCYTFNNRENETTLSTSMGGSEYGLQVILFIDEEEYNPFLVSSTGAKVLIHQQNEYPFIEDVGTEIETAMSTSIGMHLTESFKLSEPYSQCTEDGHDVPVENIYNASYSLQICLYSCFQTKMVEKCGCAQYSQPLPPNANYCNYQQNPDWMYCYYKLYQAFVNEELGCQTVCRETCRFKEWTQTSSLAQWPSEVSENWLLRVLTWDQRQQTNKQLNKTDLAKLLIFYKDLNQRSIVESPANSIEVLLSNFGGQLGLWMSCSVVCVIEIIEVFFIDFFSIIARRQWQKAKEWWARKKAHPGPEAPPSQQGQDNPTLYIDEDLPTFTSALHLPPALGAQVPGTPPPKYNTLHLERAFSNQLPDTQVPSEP
# guinea pig δβγ-ENaC = target: T2, guinea pig δβγ-ENaC (Cavia porcellus, UniProt H0UT09+H0VJS1+H0VNV9); assay: as above; type: cell-based; conditions: channel block; -60 mV; ORS 90 mM NaCl, pH 7.4, room temperature
# T2 construct: gene Scnn1d; heterotrimer in Xenopus laevis oocytes; δ with fused exons 11/12
# T2 sequence (H0VJS1 1-618): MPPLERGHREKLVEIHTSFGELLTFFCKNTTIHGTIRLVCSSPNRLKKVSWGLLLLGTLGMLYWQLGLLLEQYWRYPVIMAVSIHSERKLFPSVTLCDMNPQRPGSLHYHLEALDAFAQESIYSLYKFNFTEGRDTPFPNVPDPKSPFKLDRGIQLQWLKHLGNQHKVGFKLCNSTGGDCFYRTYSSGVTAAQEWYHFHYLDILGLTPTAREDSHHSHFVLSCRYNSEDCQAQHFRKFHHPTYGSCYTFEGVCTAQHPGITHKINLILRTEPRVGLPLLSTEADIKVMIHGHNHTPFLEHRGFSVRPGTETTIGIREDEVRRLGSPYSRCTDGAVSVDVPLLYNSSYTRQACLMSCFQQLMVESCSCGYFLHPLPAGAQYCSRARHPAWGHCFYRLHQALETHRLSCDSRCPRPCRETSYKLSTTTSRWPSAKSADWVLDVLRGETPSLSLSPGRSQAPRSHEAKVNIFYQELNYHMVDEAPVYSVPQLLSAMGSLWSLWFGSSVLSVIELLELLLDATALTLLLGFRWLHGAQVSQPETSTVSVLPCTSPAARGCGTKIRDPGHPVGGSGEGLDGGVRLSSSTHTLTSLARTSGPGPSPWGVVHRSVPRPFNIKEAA
# T2 sequence (H0VNV9 1-640): T1 sequence (H0VNV9 1-640)
# T2 sequence (H0UT09 1-653): T1 sequence (H0UT09 1-653)
compound,measurement,setting,value
N=C(N)NC(=O)c1nc(Cl)c(N)nc1N [amiloride],IC50,guinea pig αβγ-ENaC,150 ± 20 nM
same,IC50,guinea pig δβγ-ENaC,240 ± 50 nM

# Reference: PMC8662647, “Two Functional Epithelial Sodium Channel Isoforms Are Present in Rodents despite Pronounced Evolutionary Pseudogenization and Exon Fusion” (Molecular Biology and Evolution, 2021)
